Assay results: paper PMC9946977, “Identification of linderalactone as a natural inhibitor of SHP2 to ameliorate CCl4-induced liver fibrosis” (Frontiers in Pharmacology, 2023)

Legend:
[1] = tested on: mouse liver; experiment: LIN alone in mice (toxicity); format: in vivo, C57BL/6 mice; conditions: LIN alone 40 mg/kg i.g. once per day, 4 weeks
Protocol: C57BL/6 mice (20 ± 2 g) were obtained from Hangzhou Medical College Experimental Animal Center (Hangzhou, China). The animals were maintained under controlled temperature (22°C ± 1°C), humidity (50%), and light (12 h light/12 h dark). The animals were fed a standard laboratory diet and provided with free access to tap water. All animals received humane care according to institutional animal care guidelines approved by the Experimental Animal Ethical Committee of Hangzhou Medical College. […] After treatment, the mice were sacrificed, and plasma and liver tissues were collected and further analysed.
Serum was collected from blood samples after centrifugation at 860 × g for 15 min. Serum ALT (Nanjing Jiancheng Bioengineering Institute, C010-2-1) and AST (Nanjing Jiancheng Bioengineering Institute, C009-2-1) activities were measured using kits, according to the manufacturer’s instructions. Liver hydroxyproline content was determined using the alkaline hydrolysis method, as described in the kits. Serum levels of laminin (LN) were measured using ELISA kits, according to the manufacturer’s instructions (Shanghai YANJIN Biological Technology Co., LTD, F12019). […]

[2] = tested on: CCl4-induced liver fibrosis; experiment: CCl4-induced liver fibrosis mouse model: liver injury and fibrosis; format: in vivo, C57BL/6 mice; conditions: CCl4 mice
Protocol: (§1) C57BL/6 mice (20 ± 2 g) were obtained from Hangzhou Medical College Experimental Animal Center (Hangzhou, China). The animals were maintained under controlled temperature (22°C ± 1°C), humidity (50%), and light (12 h light/12 h dark). The animals were fed a standard laboratory diet and provided with free access to tap water. All animals received humane care according to institutional animal care guidelines approved by the Experimental Animal Ethical Committee of Hangzhou Medical College. Forty mice were randomly divided into six groups: (1) vehicle control (n = 7); (2) CCl4 model (n = 7); (3) CCl4 + LIN (20 mg/kg) (n = 7); (4) CCl4 + LIN (40 mg/kg) (n = 7); (5) LIN (40 mg/kg) (n = 7); and (6) CCl4 + silymarin (SIL) (200 mg/kg) (n = 5). LIN and SIL were dissolved in 0.5% CMC-Na solution. Mice were administered LIN or SIL (intragastric administration, i.g.) once per day and CCl4 (intraperitoneal injection, i.p.; mixed 1:3 in olive oil, 2 mL/kg) twice per week for 4 weeks. Mice in the vehicle control group received olive oil (i.p. twice a week, 4 weeks) and 0.5% CMC-Na (i.g. every day, 4 weeks). After treatment, the mice were sacrificed, and plasma and liver tissues were collected and further analysed.
Serum was collected from blood samples after centrifugation at 860 × g for 15 min. Serum ALT (Nanjing Jiancheng Bioengineering Institute, C010-2-1) and AST (Nanjing Jiancheng Bioengineering Institute, C009-2-1) activities were measured using kits, according to the manufacturer’s instructions. Liver hydroxyproline content was determined using the alkaline hydrolysis method, as described in the kits. Serum levels of laminin (LN) were measured using ELISA kits, according to the manufacturer’s instructions (Shanghai YANJIN Biological Technology Co., LTD, F12019).
(§2) Total RNA was extracted from liver tissues and LX-2 cells using the TRIzol reagent. cDNA was synthesised using a PrimeScript RT Master Mix kit. Real-time PCR was performed using SYBR Green premix according to the manufacturer’s instructions. Relative expression of target genes was normalised to actin, analysed by the delta-delta-CT method and given as a ratio compared with the vehicle control. Primer sequences used in this study are listed in Supplementary Material.
A sample of the liver was fixed in 10% phosphate-buffered saline (PBS)-formalin solution and embedded in paraffin. Samples were sectioned (5 μm) and stained with haematoxylin-eosin (H&E) for histological observation of liver injury and stained with Masson’s trichrome and Sirius red to observe collagen deposition in the liver.

[3] = target: T1, SHP2-PTP WT (Homo sapiens, UniProt Q06124); experiment: BLI assay, wildtype SHP2-PTP; conditions: 1:1 binding model
T1 construct: Human SHP2 PTP domain (A237–I529) expression constructs; His-tag; made in house; host or cells: E. coli BL21 (DE3)
T1 sequence (Q06124 237-529): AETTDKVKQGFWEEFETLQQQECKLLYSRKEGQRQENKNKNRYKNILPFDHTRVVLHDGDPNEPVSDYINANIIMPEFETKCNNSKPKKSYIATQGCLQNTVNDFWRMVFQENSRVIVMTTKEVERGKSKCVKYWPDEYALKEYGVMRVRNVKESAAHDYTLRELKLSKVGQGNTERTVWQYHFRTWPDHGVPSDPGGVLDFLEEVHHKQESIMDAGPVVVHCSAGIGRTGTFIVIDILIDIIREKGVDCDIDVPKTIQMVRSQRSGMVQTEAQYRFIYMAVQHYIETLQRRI
Protocol: The BLI assay was performed using a FortéBio Octet 96 system. To label the biotin group on SHP2 proteins, NHS-PEG12-Biotin […] was added to the purified SHP2-PTP solution […] at 1.5:1 ratio for 2 h at 4°C. The reaction mixture was then loaded onto a column (GENEMORE, #G-MM-IGT) to remove excess free biotin. The biotin-labelled-SHP2-PTP protein was loaded onto super streptavidin (SSA) sensors (#18-5057, Octet) in a buffer containing […] 25 mM HEPES, 150 mM NaCl, and 0.02% (v/v) Tween-20. After equilibrium, the kinetics of the LIN and SHP2-PTP association were analysed by soaking the SSA sensors in a compound solution with various LIN concentrations for 300 s (6.25, 12.5, 25, 50, 100, and 200 μM), followed by 300 s of dissociation in the same HEPES buffer. The equilibrium constant (KD) values were assessed using the FortéBio data analysis software by fitting the kinetic data using a 1:1 binding model.

[4] = tested on: TGF-β/Smad pathway; experiment: CCl4 mouse model: liver TGF-β/Smad signalling (real-time PCR, Western blot); format: in vivo, C57BL/6 mice
Protocol: as §1, §2
Liver proteins were isolated by using a lysis buffer containing 50 mM Tris-HCl (pH7.5), 150 mM NaCl, 1 mM EDTA, 20 mM NaF, 0.5% NP-40, 10% glycerol, 1 mM phenylmethylsulphonyl fluoride, 10 μg/mL aprotinin, 10 μg/mL leupeptin, and 10 μg/mL pepstatin. The supernatants were collected after centrifugation at 3,000 g for 10 min at 4°C, and the protein concentration of each sample was determined and normalised to the same protein concentration. Protein samples were separated by sodium dodecyl sulphate-polyacrylamide gel electrophoresis and transferred onto polyvinylidene fluoride membranes. The membranes were incubated with the indicated primary and secondary antibodies, and the proteins in the membranes were visualised using a chemiluminescence kit. TGF-® antibody (CST, 3711), Smad 2/3 antibody (CST, 8685), p-Smad 2/3 antibody (CST, 8828), anti-α-SMA antibody (Santa Cruz, SC-53142), vimentin antibody (ABclonal, A19607), desmin antibody (ABclonal, A3736), GAPDH antibody (Beyotime, AF0006), and SHP2 antibody (CST, 3397). […]

[5] = LIN 20 and 40 mg/kg i.g. once per day, 4 weeks, p < 0.05
[6] = LIN 20 and 40 mg/kg, dose-dependent

- Kd [3]: 666 µM
SMILES: C/C1=C\CCC2=C[C@@H](OC2=O)c2c(C)coc2C1 [LIN, linderalactone]
- ALT/AST [1]: no obvious alteration
- pathological changes in mouse liver tissue [1]: no obvious alteration
- hepatic Col1a1 mRNA level ([2]; LIN 20 mg/kg): significantly reversed
- hepatic Col3a1 mRNA level ([2]; LIN 20 mg/kg): significantly reversed
- collagen deposition (Masson's trichrome, Sirius red) ([2]; LIN 40 mg/kg): mild collagen deposition in the liver without bridging fibrosis
- serum ALT level [2, 5]: significantly reduced
- serum AST level [2, 5]: significantly reduced
- liver hydroxyproline level [2, 6]: decreased
- serum laminin level [2, 6]: decreased
- CCl4-induced liver damage (H&E: immune cell infiltration, swelling, necrosis of hepatocytes) ([2]; LIN treatment): ameliorated
- extent of collagen deposition (Masson's trichrome, Sirius red) ([2]; LIN, dose-dependent): ameliorated
- hepatic TGF-β protein expression ([4]; CCl4 mice, LIN 40 mg/kg, Western blot): reduced
- hepatic TGF-β mRNA expression ([4]; CCl4 mice, LIN 40 mg/kg, real-time PCR): reduced
- Smad2/3 phosphorylation in the liver ([4]; CCl4 mice, Western blot): significantly inhibited
- expression level of SHP2 protein ([4]; liver (Figure 4D) and LX-2 cells (Figure S2), Western blot): do not affect
